Measured values as given in patent publication US9850219B1, “Phenothiazine derivatives and methods of use thereof” (Acenda Pharma, Inc., priority 2016, dated 2017).

Columns and labels:
A549 = assay: Cytotoxicity, sulforhodamine B (SRB) assay, A549; format: cell-based, Human; details: A549, 48 h, NA indicates no activity
Source text: (§1) Human non-small cell lung cancer (NSCLC) cell lines (e.g., A549, H441GL and H1299), colon cancer cell lines (e.g., HCT116 and DLD1), breast cancer cell lines (e.g., MCF7 and MDA-MB-231), and pancreatic cancer cell lines (e.g., PANC-1 and SUIT-2) were used in cytotoxicity studies. […] A549 and H441GL are EGFR-wild type adenocarcinoma cell lines. H1299 is an EGFR-wild type large cell carcinoma cell line. HCT116 and DLD1 are metastatic colon cell lines. MCF7 is a hormone-responsive breast cancer cell line. MDA-MB-231 is a triple-negative breast cancer cell line. PANC-1 is a metastatic adenocarcinoma cell line. SUIT-2 is a pancreatic ductal adenocarcinoma cell line.
(§2) All cell lines were grown and maintained in RPMI medium supplemented with 10% fetal bovine serum (FBS, Invitrogen), 2 mM L-glutamine, 100 U/mL penicillin, and 100 μg/mL streptomycin. For cell the culture experiment, stock solution (10 mM) of each test compound was dissolved in dimethyl sulfoxide (DMSO; Sigma).
(§3) Cells were plated in 96-well plates at a density of 2000 cells per well in triplicate. The cells in each well were treated on the third day (to ensure proper plating efficiency and vitality) with different concentrations (0-50 μM) of each test compound for 48 h.
(§4) Cell viability was assessed using the sulforhodamine B (SRB) assay. The medium was discarded, and the adherent cells were fixed by 100 μL of cold 10% trichloroacetic acid (w/v) in each well for 1 h at 4° C. After fixation, cells were stained with 100 μL/well of 0.4% (w/v, in 1% acetic acid) SRB solution for 30 min at room temperature, and then washed 5 times with 1% acetic acid. After air-drying, 100 μL of 10 mM Tris base was added to each well and the absorbance was read at 530 nm. Cytotoxicity is expressed as the percent of cells in drug treated wells relative to number of cells in the solvent only control (set to 100%). Each experiment was performed independently in triplicate and cytotoxicity IC50 value of each test compound was calculated from cytotoxicity data obtained at various concentrations.

SUIT-2 = assay: Cytotoxicity, sulforhodamine B (SRB) assay, SUIT-2; format: cell-based, human; details: SUIT-2, Pancreas, 48 h
Source text: (§5) Human non-small cell lung cancer (NSCLC) cell lines (e.g., A549, H441GL and H1299), colon cancer cell lines (e.g., HCT116 and DLD1), breast cancer cell lines (e.g., MCF7 and MDA-MB-231), and pancreatic cancer cell lines (e.g., PANC-1 and SUIT-2) were used in cytotoxicity studies. These NSCLC cell lines have intrinsic resistance to epidermal growth factor receptor (EGFR) inhibitors, e.g., gefitinib. A549 and H441GL are EGFR-wild type adenocarcinoma cell lines. H1299 is an EGFR-wild type large cell carcinoma cell line. HCT116 and DLD1 are metastatic colon cell lines. MCF7 is a hormone-responsive breast cancer cell line. MDA-MB-231 is a triple-negative breast cancer cell line. PANC-1 is a metastatic adenocarcinoma cell line. SUIT-2 is a pancreatic ductal adenocarcinoma cell line.
as §2, §3, §4

HCT116 = assay: Cytotoxicity, sulforhodamine B (SRB) assay, HCT116; format: cell-based, human; details: HCT116, Colon, 48 h
Source text: as §5, §2, §3, §4

MCF7 = assay: Cytotoxicity, sulforhodamine B (SRB) assay, MCF7; format: cell-based, human; details: MCF7, Breast, 48 h
Source text: as §5, §2, §3, §4

H441GL cells [1] = assay: Study 2: tumor size in mouse lung cancer model; format: in vivo, NOD/SCID mice; details: for Tumor Size [Fold Change from Week 3 (Mean ± SD, n = 4)] Week 3 / Tumor Size [Fold Change from Week 3 (Mean ± SD, n = 4)] Week 9 / Tumor Size [Fold Change from Week 3 (Mean ± SD, n = 4)] Week 13: Study 2, 0.0127 mmol/kg daily, i.p.; for Tumor Size [Fold Change from Week 3 (Mean ± SD, n = 4)] Week 3: Week 3 (baseline, start of treatment)
Procedure: (§6) H441GL cells (1×10^6 cells in 100 μL phosphate-buffered saline/injection) were subcutaneously injected into the right flank of NOD/SCID mice (female, 4-6 weeks old). Mice were allowed 2 weeks for tumor growth. On the first day of Week 3 post injection, tumor-bearing mice were randomly divided into control group (DMSO vehicle, intraperitoneal (i.p.) injection) and test compound treatment groups (5 mg/kg/day, 5 days/week, i.p. injection). Over the period of 10 weeks, tumorigenesis in both groups was measured using a caliper on a weekly basis. The change in tumor size was expressed as in fold change from Week 3. In this study body weight of each mouse was also recorded at the end of each study week.
In this study, the daily dose was 0.0127 mmol/kg instead of 5 mg/kg.

PANC-1 = assay: Cytotoxicity, sulforhodamine B (SRB) assay, PANC-1; format: cell-based, human; details: PANC-1, Pancreas, 48 h, NA = no activity
Source text: as §5, §2, §3, §4

MDA-MB-231 = assay: Cytotoxicity, sulforhodamine B (SRB) assay, MDA-MB-231; format: cell-based, human; details: MDA-MB-231, Breast, 48 h
Source text: as §5, §2, §3, §4

H441GL = assay: Cytotoxicity, sulforhodamine B (SRB) assay, H441GL; format: cell-based, Human; details: 48 h, NA indicates no activity
Source text: as §1, §2, §3, §4

lung cancer cells = assay: Cytotoxicity SRB assay, summary of Table 2; format: cell-based, Human; details: summary in words of Table 2
Source text: as §5, §3, §4
NA indicates no activity.

DLD1 = assay: Cytotoxicity, sulforhodamine B (SRB) assay, DLD1; format: cell-based, human; details: DLD1, Colon, 48 h
Source text: as §5, §2, §3, §4

H1299 = assay: Cytotoxicity, sulforhodamine B (SRB) assay, H1299; format: cell-based; details: Homo sapiens, NCI-H1299, H1299, 48 h
Source text: as §1, §2, §3, §4

H441GL cells [2] = assay: Study 1: tumor size in mouse lung cancer model; format: in vivo, NOD/SCID mice; details: Study 1, 5 mg/kg/day, 5 days/week, i.p.; for Tumor Size [Fold Change from Week 3 (Mean ± SD, n = 4)] Week 3: Week 3 (baseline, start of treatment)
Procedure: as §6

COCCOCCOCCOCCOCCOCCN1CCN(CCCN2c3ccccc3Sc3ccc(C(F)(F)F)cc32)CC1 [Compound 4-2b]
IC50 (A549): 21.3 µM | IC50 (SUIT-2): 15.6 µM | IC50 (HCT116): 6.5 µM | IC50 (MCF7): 13.2 µM | effect on tumor growth as compared to the vehicle control (H441GL cells [1]; Study 2, 0.0127 mmol/kg daily i.p., by Week 13, in words): largest effect of suppressing tumor growth | Tumor Size [Fold Change from Week 3 (Mean ± SD, n = 4)] Week 3 (H441GL cells [1]): 1 ± 0 Fold Change | Tumor Size [Fold Change from Week 3 (Mean ± SD, n = 4)] Week 9 (H441GL cells [1]): 9.4 ± 2.6 Fold Change | Tumor Size [Fold Change from Week 3 (Mean ± SD, n = 4)] Week 13 (H441GL cells [1]): 23.3 ± 6.2 Fold Change | IC50 (PANC-1): 10.5 µM | IC50 (MDA-MB-231): 15.8 µM | IC50 (H441GL): 6.8 µM | inhibition of cell proliferation of lung cancer cells (lung cancer cells): inhibit cell proliferation | IC50 (DLD1): 13.9 µM

COCCOCCOCCN1CCN(CCCN2c3ccccc3Sc3ccc(C(F)(F)F)cc32)CC1 [Compound 4-1b]
IC50 (A549): 26.3 µM | IC50 (SUIT-2): 13.3 µM | IC50 (HCT116): 6.5 µM | IC50 (MCF7): 13.1 µM | IC50 (PANC-1): 20 µM | IC50 (MDA-MB-231): 14.7 µM | IC50 (H441GL): 10.5 µM | inhibition of cell proliferation of lung cancer cells (lung cancer cells): inhibit cell proliferation | IC50 (DLD1): 8 µM

COCCOCCOCCOCCOCCOCCOCCOCCOCCOCCOCCOCCN1CCN(CCCN2c3ccccc3Sc3ccc(C(F)(F)F)cc32)CC1 [Compound 4-3b]
IC50 (A549): 11.5 µM | IC50 (SUIT-2): 22 µM | IC50 (HCT116): 8.4 µM | IC50 (MCF7): 10.2 µM | Tumor Size [Fold Change from Week 3 (Mean ± SD, n = 4)] Week 3 (H441GL cells [1]): 1 ± 0 Fold Change | Tumor Size [Fold Change from Week 3 (Mean ± SD, n = 4)] Week 9 (H441GL cells [1]): 11.7 ± 2.1 Fold Change | Tumor Size [Fold Change from Week 3 (Mean ± SD, n = 4)] Week 13 (H441GL cells [1]): 30.2 ± 6.2 Fold Change | IC50 (PANC-1): 15.2 µM | IC50 (MDA-MB-231): 13.8 µM | IC50 (H441GL): 10.5 µM | inhibition of cell proliferation of lung cancer cells (lung cancer cells): inhibit cell proliferation | IC50 (DLD1): 18 µM

COCC(COCC(COCC(COCCOCCOCCN1CCN(CCCN2c3ccccc3Sc3ccc(Cl)cc32)CC1)OC)OC)OC (stereo not drawn) [Compound 25-1a, NDP-[CH2CH2O]n—[CH2CH(OCH3)CH2O]3—CH3]
IC50 (A549; Homo sapiens): 12.7 µM | IC50 (SUIT-2; Homo sapiens): 13 µM | IC50 (MCF7; Homo sapiens): 14.6 µM | Tumor Size [Fold Change from Week 3 (Mean ± SD, n = 4)] Week 3 (H441GL cells [1]): 1 ± 0 Fold Change | Tumor Size [Fold Change from Week 3 (Mean ± SD, n = 4)] Week 9 (H441GL cells [1]): 12.3 ± 2.0 Fold Change | Tumor Size [Fold Change from Week 3 (Mean ± SD, n = 4)] Week 13 (H441GL cells [1]): 31.5 ± 5.4 Fold Change | IC50 (PANC-1; Homo sapiens): 16.4 µM | IC50 (MDA-MB-231; Homo sapiens): 12.7 µM | IC50 (H1299): 13.1 µM | IC50 (H441GL; Homo sapiens): 13.3 µM | inhibition of cell proliferation of lung cancer cells (lung cancer cells): inhibit cell proliferation

COCC(COCC(COCC(CN1CCN(CCCN2c3ccccc3Sc3ccc(Cl)cc32)CC1)OC)OC)OC (stereo not drawn) [Compound 24a, NDP-[CH2CH(OCH3)CH2O]3—CH3]
IC50 (A549; Homo sapiens): 11.7 µM | IC50 (SUIT-2; Homo sapiens): 16.1 µM | IC50 (MCF7; Homo sapiens): 14.5 µM | IC50 (PANC-1; Homo sapiens): 12.4 µM | IC50 (MDA-MB-231; Homo sapiens): 17.6 µM | IC50 (H1299): 14.2 µM | IC50 (H441GL; Homo sapiens): 19.1 µM | inhibition of cell proliferation of lung cancer cells (lung cancer cells): inhibit cell proliferation

COCCOCCOCCOC(=O)N1CCN(CCCN2c3ccccc3Sc3ccc(C(F)(F)F)cc32)CC1 [Compound 5-1b, NDT-CO—O—[CH2CH2O]3—CH3]
IC50 (A549): 3.8 µM | IC50 (SUIT-2): 21.4 µM | IC50 (HCT116): 10 µM | IC50 (MCF7): 13.6 µM | IC50 (PANC-1): 18.2 µM | IC50 (MDA-MB-231): 21.6 µM | IC50 (H441GL): 3.2 µM | inhibition of cell proliferation of lung cancer cells (lung cancer cells): inhibit cell proliferation | IC50 (DLD1): 35.9 µM | Tumor Size [Fold Change from Week 3 (Mean ± SD, n = 4)] Week 3 (H441GL cells [2]): 1 ± 0 Fold Change | Tumor Size [Fold Change from Week 3 (Mean ± SD, n = 4)] Week 9 (H441GL cells [2]): 28.2 ± 7.4 Fold Change | Tumor Size [Fold Change from Week 3 (Mean ± SD, n = 4)] Week 13 (H441GL cells [2]): 69.8 ± 18.4 Fold Change

FC(F)(F)c1ccc2c(c1)N(CCCN1CCNCC1)c1ccccc1S2 [NDT, N-desmethyl trifluoperazine, reference compound]
IC50 (A549; Homo sapiens): 6.3 µM | IC50 (H1299): 6.9 µM | IC50 (H441GL; Homo sapiens): 3.9 µM | inhibition of cell proliferation of lung cancer cells (lung cancer cells): inhibit cell proliferation

COCC(COCC(COCC(COCCOCCOCCOCCOCCOCCOCCOCCOCCN1CCN(CCCN2c3ccccc3Sc3ccc(Cl)cc32)CC1)OC)OC)OC (stereo not drawn) [Compound 25-2a, NDP-[CH2CH2O]n—[CH2CH(OCH3)CH2O]3—CH3]
IC50 (A549; Homo sapiens): 16.7 µM | IC50 (SUIT-2; Homo sapiens): 25.6 µM | IC50 (MCF7; Homo sapiens): 13.3 µM | IC50 (PANC-1; Homo sapiens): 35.4 µM | IC50 (MDA-MB-231; Homo sapiens): 16.8 µM | IC50 (H1299): 16.8 µM | IC50 (H441GL; Homo sapiens): 17.5 µM | inhibition of cell proliferation of lung cancer cells (lung cancer cells): inhibit cell proliferation

COCCOCCOCCOCCOCCOCCOCCOCCOCCOCCOCCOCCOC(=O)N1CCN(CCCN2c3ccccc3Sc3ccc(Cl)cc32)CC1 [Compound 5-3a, NDP-CO—O—[CH2CH2O]12—CH3]
IC50 (A549): 2.7 µM | IC50 (SUIT-2): 11.3 µM | IC50 (MCF7): 6.5 µM | IC50 (PANC-1): 5 µM | IC50 (MDA-MB-231): 8.9 µM | IC50 (H441GL): 3 µM | inhibition of cell proliferation of lung cancer cells (lung cancer cells): inhibit cell proliferation | Tumor Size [Fold Change from Week 3 (Mean ± SD, n = 4)] Week 3 (H441GL cells [2]): 1 ± 0 Fold Change | Tumor Size [Fold Change from Week 3 (Mean ± SD, n = 4)] Week 9 (H441GL cells [2]): 23.7 ± 3.4 Fold Change | Tumor Size [Fold Change from Week 3 (Mean ± SD, n = 4)] Week 13 (H441GL cells [2]): 53.9 ± 10.1 Fold Change
